Test results: PubChem BioAssay AID1648 (Sanford-Burnham Center for Chemical Genomics, 2009)
The source made the active and inactive calls. No rule for the calls is given here.

Biological target: Serine/threonine-protein kinase mTOR (Homo sapiens) (UniProt P42345)
Experiment: binders of mTOR FRB domain, biophysical, NMR (AID 1648)
Conditions: NMR binding to FRB domain, chemical shift

Sequence of Serine/threonine-protein kinase mTOR (Homo sapiens) (P42345 2015-2114): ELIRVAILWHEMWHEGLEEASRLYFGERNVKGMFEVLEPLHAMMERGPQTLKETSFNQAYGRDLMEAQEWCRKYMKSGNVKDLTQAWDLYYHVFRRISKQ

SMILES	Kd
C=Cc1c(C)c2cc3[nH]c(cc4nc(cc5nc(cc1[nH]2)C(C)=C5CCC(=O)O)C(CCC(=O)O)=C4C)c(C)c3C=C	> 4 mM (inactive)
O=C(c1ccccc1)c1ccc(N2CCNCC2)cc1	> 4 mM (inactive)
CN1C2CC3C[C@H]1C(O3)C2O (stereo partly specified)	> 4 mM (inactive)
CNS(=O)(=O)c1cc(OC)ccc1OC	> 4 mM (inactive)
CNC(=O)n1ccc(C(=O)N2CCCCC2)n1	> 4 mM (inactive)
Cc1ccc(SCc2cc(=O)n3[nH]c(C)nc3n2)cc1	> 4 mM (inactive)
Nc1nc(-c2cccnc2)nn1C(=O)Cc1ccccc1	> 4 mM (inactive)
c1cc2n(c1)CCNC2c1ccncc1 (stereo unspecified)	> 4 mM (inactive)
O=C(/C=C/c1ccccc1)c1ccc(O)cc1	> 4 mM (inactive)
COc1ccc(NC(=O)N2CCCCC2)cc1	> 4 mM (inactive)
O=C(c1ccccc1)c1ccccc1C(=O)N1CCOCC1	> 4 mM (inactive)
O=[N+]([O-])c1cccc(-c2c[n+](=O)c3c(n2[O-])CCC3)c1	> 4 mM (inactive)
NS(=O)(=O)c1ccc(NC(=S)NC2CC2)cc1	> 4 mM (inactive)
C/C=C(/C)C(=O)O[C@@H]1[C@H](OC(C)=O)[C@@]2(CO)C(CC1(C)C)C1=CCC3[C@@]4(C)CC[C@H](O[C@@H]5O[C@H](C(=O)O)[C@@H](O[C@@H]6O[C@H](CO)[C@@H](O)[C@H](O)[C@H]6O)[C@H](O)[C@H]5O[C@@H]5O[C@H](CO)[C@@H](O)[C@H](O)[C@H]5O)[C@](C)(CO)C4CC[C@@]3(C)[C@]1(C)C[C@H]2O (stereo partly specified)	> 4 mM (inactive)
CN1CN(Cc2ccccc2)CN/C1=N/[N+](=O)[O-]	> 4 mM (inactive)
COCC(=O)OCn1nnc2ccccc2c1=O	> 4 mM (inactive)
Cc1ccc(CN2CCN(C(=O)C3CCC3)CC2)cc1	> 4 mM (inactive)
Cc1onc(-c2ccc(F)cc2)c1C(=O)O	> 4 mM (inactive)
C=C(C)C1Cc2c(ccc(C(=O)O)c2O)O1 (stereo unspecified)	> 4 mM (inactive)
CCc1c(C(=O)Nc2ccncc2)csc1C	> 4 mM (inactive)
FC(F)(F)c1nnc2ccc(N3CCOCC3)nn12	> 4 mM (inactive)
Cc1[nH]c2ccccc2c1C=Nn1cncn1	> 4 mM (inactive)
Cc1ccc(/C=N/NC(N)=O)o1	> 4 mM (inactive)

SMILES	Kd
C=C1C2CC[C@@]3(C)[C@H](c4ccoc4)OC(=O)C[C@]13O[C@H]1CC(=O)C(C)(C)[C@H](C(OC(C)=O)C(=O)OC)[C@@]21C (stereo partly specified)	> 4 mM (inactive)
O=c1cc(-c2ccc(O)cc2)oc2cc(O[C@@H]3O[C@H](CO)[C@@H](O)[C@H](O)[C@H]3O[C@@H]3OC[C@](O)(CO)[C@H]3O)cc(O)c12	> 4 mM (inactive)
O=C(Nc1nncs1)c1c(F)cccc1F	> 4 mM (inactive)
O=c1c(-c2ccccc2)coc2cc(O)cc(O)c12	> 4 mM (inactive)
CNc1nc(SC)nc(N2CCOCC2)n1	> 4 mM (inactive)
O=c1nc(N2CCOCC2)nc2n1CCO2	> 4 mM (inactive)
COc1ccc(CN2CCC(O)CC2)c(O)c1	> 4 mM (inactive)
COC(=O)c1scc(C)c1N	> 4 mM (inactive)
Cc1cc(C)n(CC(=O)NC2CCCCC2)n1	> 4 mM (inactive)
CC(C)[C@@H]1CC[C@@H](C)CC1=O	> 4 mM (inactive)
CN(C)C(=S)Nc1nc2ccccc2s1	> 4 mM (inactive)
Cc1nc(-c2ccc(CO)s2)cs1	> 4 mM (inactive)
O=C(c1cc2ccccc2o1)N1CCCCCC1	> 4 mM (inactive)
CCOc1ccc(C(=O)c2ccc(OC)c(O)c2O)cc1	> 4 mM (inactive)
OCc1cccc2c1OCO2	> 4 mM (inactive)
COc1ccc2c(c1)[nH]c1c(C)nccc12	> 4 mM (inactive)
O=C(c1ccccc1-c1ccccc1)N1CCOCC1	> 4 mM (inactive)
NC(=O)c1ccc(-c2ccccn2)s1	> 4 mM (inactive)
CC(=O)c1cnc2nc(C(F)(F)F)nn2c1C	> 4 mM (inactive)
Cc1cc(=O)[nH]c(NCc2cccnc2)n1	> 4 mM (inactive)
CC12CN(CC#N)CC(C)(CN(CC#N)C1)C2=O	> 4 mM (inactive)
CC(=O)c1c(C)nc2ccccc2c1N	> 4 mM (inactive)
OCc1cc(-c2cccs2)on1	> 4 mM (inactive)

SMILES	Kd
Cc1cc(=O)c2c(O)cc(O)c(C)c2o1	> 4 mM (inactive)
Nc1scc[n+]1CC(=O)[O-]	> 4 mM (inactive)
C/C=C(\C)C(=O)OC1[C@@H]2C=C3C(CC[C@]4(C)C3CC(=O)O[C@H]4c3ccoc3)C(C)(C2=O)[C@@H](C(O)C(=O)OC)C1(C)C (stereo partly specified)	> 4 mM (inactive)
C[C@]12CCC3C(CC[C@H]4C[C@@H](O)CC[C@]34C)C1CCC2=O (stereo partly specified)	> 4 mM (inactive)
Cc1nc2nc(Cc3ccccc3)nn2c(C)c1Cl	> 4 mM (inactive)
c1ccc2[nH]c(SCc3cscn3)nc2c1	> 4 mM (inactive)
CC(=O)O[C@@H]1CC2C(C)(C)[C@H](O)CC[C@]2(C)C2CC[C@@]3(C)[C@H](c4ccoc4)OC(=O)C4OC43[C@@]21C (stereo partly specified)	> 4 mM (inactive)
Cn1nnc2cc(C(=O)NC3=NCCS3)ccc21	> 4 mM (inactive)
Nc1ccn(C2O[C@H](CO)[C@@H](O)[C@H]2O)c(=O)n1 (stereo partly specified)	> 4 mM (inactive)
COc1c2c(cc3occ(-c4ccc5c(c4)OCO5)c(=O)c13)OC(C)(C)C=C2	> 4 mM (inactive)
COc1cc(C/C=C/c2ccccc2)c(OC)cc1O	> 4 mM (inactive)
CC(=O)c1cnc(Nc2nc(C)c3ccccc3n2)nc1C	> 4 mM (inactive)
Cc1cc(=O)n(CCc2ccccc2)c(O)c1C#N	> 4 mM (inactive)
O=C(O[C@@H]1Cc2c(O)cc(O)cc2O[C@@H]1c1ccc(O)c(O)c1)c1cc(O)c(O)c(O)c1	> 4 mM (inactive)
O=c1c2ccccc2oc2ccc(O)cc12	> 4 mM (inactive)
CS(=O)(=O)c1nncn1-c1ccccc1	> 4 mM (inactive)
Cc1n[nH]c(C)c1CN	> 4 mM (inactive)
CC(C)CCCC(C)[C@H]1CCC2C3CC[C@@H]4C[C@H](O)CC[C@]4(C)C3CC[C@@]21C (stereo partly specified)	> 4 mM (inactive)
OCc1cccc2c1OCCO2	> 4 mM (inactive)
Cc1nc2ccc(C(=O)N3CCSCC3)cc2s1	> 4 mM (inactive)
COC(=O)[C@@H]1OC(=O)C2OC23[C@@]1(C)CCC1[C@]2(C)C(C[C@@H](O)[C@]13C)C(C)(C)[C@H](OC(C)=O)C[C@@H]2OC(C)=O (stereo partly specified)	> 4 mM (inactive)
CCOC(=O)CC1NCCNC1=O (stereo unspecified)	> 4 mM (inactive)
O=C1C=C(Nc2ccccc2O)c2ccccc2C1=O	> 4 mM (inactive)

SMILES	Kd
CC(=O)CS(=O)(=O)c1ccccc1	> 4 mM (inactive)
COC(=O)/C(=C1\OC(=O)C(c2ccccc2)C1=O)c1ccccc1 (stereo unspecified)	> 4 mM (inactive)
Cc1oc(-c2ccccc2)cc1C(N)=O	> 4 mM (inactive)
Cc1nc(-c2ccccc2)ncc1C(=O)O	> 4 mM (inactive)
O=C(CSc1ncn[nH]1)c1ccc2c(c1)OCCO2	> 4 mM (inactive)
O=C1CC2OCC=C3CN4CC[C@]56c7ccccc7N1C5[C@H]2[C@H]3CC46 (stereo partly specified)	> 4 mM (inactive)
Cc1ccc(C(=O)Nc2nnc(-c3ccncc3)s2)o1	> 4 mM (inactive)
CCCS(=O)(=O)N1CCN(c2ccccn2)CC1	> 4 mM (inactive)
CC(=O)OC1CCC23CC1(C)CCC2C(C)(C)CC3OC(C)=O (stereo unspecified)	> 4 mM (inactive)
Cc1cc(=O)n(CC(C)C)c(O)c1C#N	> 4 mM (inactive)
COc1ccc(-c2nc3nc(C)cc(C)n3n2)cc1	> 4 mM (inactive)
COc1cc([C@H]2Oc3cc([C@H]4Oc5cc(O)cc(O)c5C(=O)[C@@H]4O)ccc3O[C@@H]2CO)ccc1O	> 4 mM (inactive)
COc1ncccc1N	> 4 mM (inactive)
O=C(Nc1cccc(Cl)c1)c1ccncc1	> 4 mM (inactive)
Cc1cc(C)nc(/N=C(/N)N2CCN(C)CC2)n1	> 4 mM (inactive)
O=S(=O)(c1ccc(F)c(Cl)c1)N1CCCC1	> 4 mM (inactive)
Cc1nnc(NCCN2CCOCC2)[nH]c1=O	> 4 mM (inactive)
O=C1C2C3C=CC(C3)C2C(=O)N1CCCO (stereo unspecified)	> 4 mM (inactive)
CCOC(=O)c1c(C)nc2c(C#N)cnn2c1C	> 4 mM (inactive)
CN1CCCC1C(=O)O (stereo unspecified)	> 4 mM (inactive)
CN1CCCCC1c1ccc(-c2cccnc2)nc1 (stereo unspecified)	> 4 mM (inactive)
COC(=O)c1cccc(C(F)(F)F)c1	> 4 mM (inactive)
Cc1onc(-c2c(Cl)cccc2Cl)c1C(N)=O	> 4 mM (inactive)

SMILES	Kd
C[C@@H]1CC[C@@]23CCC4(C)[C@@](C=CC5[C@@]6(C)CCC(=O)C(C)(C)C6CC[C@]54C)(OC2=O)C3[C@H]1C (stereo partly specified)	> 4 mM (inactive)
Cn1nnc2cc(C(=O)NC3CCCCC3)ccc21	> 4 mM (inactive)
O=C(Nn1cnnc1)c1cc2c(s1)CCCCC2	> 4 mM (inactive)
CS(=O)(=O)c1ccccc1C(=O)Nc1nccs1	> 4 mM (inactive)
COc1cc2c(cc1OC)[C@@H]1C(=O)c3ccc(O)c(CC=C(C)C)c3O[C@@H]1CO2	> 4 mM (inactive)
O=C(NCO)c1ccc([N+](=O)[O-])cc1	> 4 mM (inactive)
CC(=O)Nc1ccc(S(=O)(=O)NC2=NCCS2)cc1	> 4 mM (inactive)
O=C(NC1CCS(=O)(=O)C1)C1CCCCC1 (stereo unspecified)	> 4 mM (inactive)
CC(=O)OC1CCC23C(=O)OC45CCC(C6=CC(=O)OC6)C4(C)CCC2C5CCC3(O)C1 (stereo unspecified)	> 4 mM (inactive)
CC(=O)c1ccc(N2C(=O)C(C(C)C)NC2=S)cc1 (stereo unspecified)	> 4 mM (inactive)
O=C(Nc1cccnc1)N1CCOCC1	> 4 mM (inactive)
CCc1noc(C)c1C(=O)N1CCCC1	> 4 mM (inactive)
NC(=O)CSc1ccccn1	> 4 mM (inactive)
NC(=O)c1cc2c(n(-c3ccccc3)c1=O)CCCC2=O	> 4 mM (inactive)
OCc1ccccc1CN1CCOCC1	> 4 mM (inactive)
N#Cc1cc(-c2ccccc2)oc1N	> 4 mM (inactive)
Cc1cc2c(N)cccc2nn1	> 4 mM (inactive)
CSc1ccccc1NC(=O)c1ccoc1C	> 4 mM (inactive)
CCOC(=O)C(C)c1n[nH]c(=O)c2ccccc12 (stereo unspecified)	> 4 mM (inactive)
